These results are taken from patent publication US7981861B2, “Method of performing angioplasty with a GLP-1 molecule” (Amylin Pharmaceuticals, Inc., priority 2000, dated 2011).

Entries after “also recorded” stand apart in the source; their conditions may differ.

One assay relates to dogs. In words: 10-minute left circumflex coronary (LCx) occlusion/reperfusion, myocardial stunning in dogs. To be noted: GLP-1 infusion for 24 hours beginning 1 minute prior to reperfusion. Format: in vivo, dog. As to the method: Two dogs were studied at baseline before, during, and for 6 hours after a 10-minute complete left circumflex coronary (LCx) occlusion. Each dog underwent occlusion/reperfusion in the presence and absence of GLP-1 infusion for 24 hours, beginning 1 minute prior to reperfusion. GLP-1 infusion enhanced the recovery of ventricular wall regional dysfunction following 10 minutes of coronary artery occlusion.

The next assay deals with Wistar rats. In words: LAD coronary artery occlusion (25 min) and 2-hour reperfusion, infarct size in anesthetized rats. Format: in vivo, rat. The protocol:
Wistar rats were anesthetized with thiopentone sodium. The left anterior descending (LAD) coronary artery was occluded. After 25 minutes of occlusion, reperfusion was allowed for 2 hours. This animal model has been described previously. Zacharowski, et al., Br. J. Pharmacol. 128; 945-952 (1999).
GLP-1 (1.5 μg/kg/min) was infused into anesthetized rats (n=10), commencing 10 minutes prior to reperfusion and continuing throughout the 2-hour reperfusion. Controls were sham operated with no occlusion (n=7), LAD occlusion+reperfusion+administration of saline (n=12), and LAD occlusion and reperfusion with a buffer of 10 mM sodium acetate, 5.05% D-mannitol, pH 4.5, (“vehicle”) at 1.5 mL/kg/hour (n=10).
Following reperfusion, the coronary artery was reoccluded, and Evans Blue dye (4 ml, 2% w/v) was injected into the left ventricle of the heart via a right carotid artery cannula. Evans Blue stains perfused myocardium, while occluded vascular bed remains uncolored. Animals were then killed by anesthetic overdose and the hearts were removed for examination. Hearts were sectioned and the right ventricular wall was removed. The area at risk (pink) was separated from the non-ischemic tissue (blue). The area at risk (pink) was then cut into smaller pieces and stained with p-nitroblue tetrazolium (NBT; 0.5 mg/ml) for 20 min. at 37° C. In the presence of intact dehydrogenase enzyme systems (viable myocardium), NBT forms a dark blue compound. Areas of necrosis lack the enzyme and remain unstained. Tissue was separated according to staining and weighed to determine infarct size as a percentage of the area at risk.

Regarding GLP-1, the “stunning period during reperfusion after subcritical ischemia” value in the assay with dogs (dogs) is recorded as “significantly reduced; also recorded: reduced stunning”. In addition, the “recovery of ventricular wall regional dysfunction following 10 minutes of coronary artery occlusion” value in the assay with dogs (two dogs) is “enhanced”. In the assay on Wistar rats (GLP-1 1.5 μg/kg/min infusion from 10 minutes prior to reperfusion and throughout 2-hour reperfusion, n=10, vehicle 46±4%, saline 50±3%), the “infarct size as a percentage of the area at risk” value stood at 31±4%. Also, the “reduction in infarct size compared with the vehicle group” value with Wistar rats (GLP-1 1.5 μg/kg/min infusion, statistically significant (p<0.05)) is given as “approximately 33%”. In addition, the “reduction of infarct size (summary statement)” value in the assay with Wistar rats (GLP-1 during last 10 min. of 25 min. ischemia and throughout 2-hour reperfusion, rats) is listed as 30%. Moreover, the hemodynamics result in the assay on Wistar rats (rats, GLP-1 during last 10 min. of ischemia and throughout 2-hour reperfusion) was “significantly improved”.
